The values below come from patent publication US12060347B2 (BRISTOL-MYERS SQUIBB COMPANY, priority 2016, dated 2024).

For this test, the target named is T1, human PAR4 (Homo sapiens, UniProt Q96RI0).
T1 construct: expressed in transfected cells; host or cells: HEK293 PAR4 Clone 1.2A (BMS Arctic ID 383940)
T1 sequence (Q96RI0 18-385): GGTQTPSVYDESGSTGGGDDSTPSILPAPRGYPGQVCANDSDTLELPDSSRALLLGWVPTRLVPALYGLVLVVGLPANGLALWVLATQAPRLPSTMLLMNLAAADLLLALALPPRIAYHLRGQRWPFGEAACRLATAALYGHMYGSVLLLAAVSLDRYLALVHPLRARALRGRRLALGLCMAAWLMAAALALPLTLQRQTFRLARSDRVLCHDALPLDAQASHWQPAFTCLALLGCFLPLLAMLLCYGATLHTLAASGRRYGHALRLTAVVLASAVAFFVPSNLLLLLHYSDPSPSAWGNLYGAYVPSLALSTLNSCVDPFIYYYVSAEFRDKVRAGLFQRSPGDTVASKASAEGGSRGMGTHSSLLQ
Nature of the test: PAR4 FLIPR assay: antagonism of agonist-peptide-induced calcium mobilization in PAR4-expressing HEK293 cells. It counts as cell-based. The note with it: H-Ala-Phe(4-F)-[…]NH2-induced intracellular calcium mobilization, 11-point curves. On the technique in general: Calcium flux is commonly read through the fluorescence of an indicator in the cells.
A word on the IC50: it is the concentration that inhibits the measured activity by half. On to `COc1cnc2c(-c3nc4cc(F)c(OC[C@@H](C)OC(=O)Nc5ccc(OCC(F)(F)CO)nc5)nc4s3)cc(C)cc2n1` [Example 687, (R)-1-((6-fluoro-2-(2-methoxy-7-methylquinoxalin-5-yl)thiazolo[5,4-b]pyridin-5-yl)oxy) propan-2-yl (6-(2,2-difluoro-3-hydroxypropoxy)pyridin-3-yl)carbamate], for which the half-maximal inhibitory concentration (IC50) is 0.9 nM.
Consider `COc1cnc2c(-c3nc4cc(F)c(OC[C@@H](C)OC(=O)Nc5cnc(OC[C@@H](C)O)nc5)nc4s3)cc(C)cc2n1` [Example 688, (R)-1-((6-fluoro-2-(2-methoxy-7-methylquinoxalin-5-yl)thiazolo[5,4-b]pyridin-5-yl)oxy) propan-2-yl (2-((R)-2-hydroxypropoxy)pyrimidin-5-yl)carbamate], for which the IC50 is 4.5 nM.
For the compound `COC(=O)c1ncc(NC(=O)O[C@H](C)COc2nc3sc(-c4cc(C)cc5nc(OC)cnc45)nc3cc2F)cn1` [Example 689, methyl (R)-5-((((1-((6-fluoro-2-(2-methoxy-7-methylquinoxalin-5-yl)thiazolo[5,4-b]pyridin-5-yl)oxy)propan-2-yl)oxy)carbonyl)amino)pyrimidine-2-carboxylate], the IC50 is 0.3 nM.
As to `COC(=O)c1ccc(NC(=O)O[C@H](C)COc2nc3sc(-c4cc(C)cc5nc(OC)cnc45)nc3cc2F)cn1` [Example 690, methyl (R)-5-((((1-((6-fluoro-2-(2-methoxy-7-methylquinoxalin-5-yl)thiazolo[5,4-b]pyridin-5-yl)oxy)propan-2-yl)oxy)carbonyl)amino)picolinate], the IC50 was 0.3 nM.
To `COc1cnc2c(-c3nc4cc(F)c(OC[C@@H](C)OC(=O)Nc5ccc(CCO)nc5)nc4s3)cc(C)cc2n1` [Example 691, (R)-1-((6-fluoro-2-(2-methoxy-7-methylquinoxalin-5-yl)thiazolo[5,4-b]pyridin-5-yl)oxy) propan-2-yl (6-(2-hydroxyethyl)pyridin-3-yl)carbamate] belongs 0.9 nM; to `COc1cnc2c(-c3nc4cc(F)c(OC[C@@H](C)OC(=O)Nc5cnc(O[C@H](C)CO)nc5)nc4s3)cc(C)cc2n1` [Example 692, (R)-1-((6-fluoro-2-(2-methoxy-7-methylquinoxalin-5-yl)thiazolo[5,4-b]pyridin-5-yl)oxy) propan-2-yl (2-(((R)-1-hydroxypropan-2-yl)oxy)pyrimidin-5-yl)carbamate], 1.8 nM.
Consider `COc1cnc2c(-c3nc4cc(F)c(OC[C@@H](C)OC(=O)Nc5cnc(O[C@@H](C)CO)nc5)nc4s3)cc(C)cc2n1` [Example 693, (R)-1-((6-fluoro-2-(2-methoxy-7-methylquinoxalin-5-yl)thiazolo[5,4-b]pyridin-5-yl)oxy) propan-2-yl (2-(((S)-1-hydroxypropan-2-yl)oxy)pyrimidin-5-yl)carbamate], for which the IC50 came out at 1.3 nM.
To `COc1cnc2c(-c3nc4cc(F)c(OC[C@@H](C)OC(=O)Nc5ccc(CO)nc5)nc4s3)cc(C)cc2n1` [Example 694, (R)-1-((6-fluoro-2-(2-methoxy-7-methylquinoxalin-5-yl)thiazolo[5,4-b]pyridin-5-yl)oxy) propan-2-yl (6-(hydroxymethyl)pyridin-3-yl)carbamate] belongs 2.1 nM.
Regarding `COc1cnc2c(-c3nc4cc(F)c(OC[C@@H](C)OC(=O)Nc5ccnc(CCO)c5)nc4s3)cc(C)cc2n1` [Example 696, (R)-1-((6-fluoro-2-(2-methoxy-7-methylquinoxalin-5-yl)thiazolo[5,4-b]pyridin-5-yl)oxy) propan-2-yl (2-(2-hydroxyethyl)pyridin-4-yl)carbamate], the half-inhibitory concentration (IC50) came to 2.6 nM.
To `COc1cnc2c(-c3nc4cc(F)c(OC[C@@H](C)OC(=O)Nc5ccnc(OCCO)c5)nc4s3)cc(C)cc2n1` [Example 697, (R)-1-((6-fluoro-2-(2-methoxy-7-methylquinoxalin-5-yl)thiazolo[5,4-b]pyridin-5-yl)oxy) propan-2-yl (2-(2-hydroxyethoxy)pyridin-4-yl)carbamate] belongs 2.9 nM.
To `COc1cnc2c(-c3nc4cc(F)c(OC[C@@H](C)OC(=O)Nc5ccnnc5)nc4s3)cc(C)cc2n1` [Example 698, (R)-1-((6-fluoro-2-(2-methoxy-7-methylquinoxalin-5-yl)thiazolo[5,4-b]pyridin-5-yl)oxy) propan-2-yl pyridazin-4-ylcarbamate] belongs 17 nM; to `COc1cnc2c(-c3nc4cc(F)c(OC[C@@H](C)OC(=O)Nc5ccnc(OCCC(C)(C)O)c5)nc4s3)cc(C)cc2n1` [Example 699, (R)-1-((6-fluoro-2-(2-methoxy-7-methylquinoxalin-5-yl)thiazolo[5,4-b]pyridin-5-yl)oxy) propan-2-yl (2-(3-hydroxy-3-methylbutoxy)pyridin-4-yl)carbamate], 1.1 nM.
For `COc1cnc2c(-c3nc4cc(F)c(OC[C@@H](C)OC(=O)Nc5ccc(OCCO)nc5)nc4s3)cc(C)cc2n1` [Example 700, (R)-1-((6-fluoro-2-(2-methoxy-7-methylquinoxalin-5-yl)thiazolo[5,4-b]pyridin-5-yl)oxy) propan-2-yl (6-(2-hydroxyethoxy)pyridin-3-yl)carbamate], the IC50 was 0.9 nM.
On to `COc1cnc2c(-c3nc4cc(F)c(OC[C@@H](C)OC(=O)Nc5cnc(OC[C@H](C)O)nc5)nc4s3)cc(C)cc2n1` [Example 701, (R)-1-((6-fluoro-2-(2-methoxy-7-methylquinoxalin-5-yl)thiazolo[5,4-b]pyridin-5-yl)oxy) propan-2-yl (2-((S)-2-hydroxypropoxy)pyrimidin-5-yl)carbamate], for which the IC50 amounted to 2.7 nM.
Consider `COc1cnc2c(-c3nc4cc(F)c(OC[C@@H](C)OC(=O)Nc5cnc(OCCC(C)(C)O)nc5)nc4s3)cc(C)cc2n1` [Example 702, (R)-1-((6-fluoro-2-(2-methoxy-7-methylquinoxalin-5-yl)thiazolo[5,4-b]pyridin-5-yl)oxy) propan-2-yl (2-(3-hydroxy-3-methylbutoxy)pyrimidin-5-yl)carbamate], for which the IC50 is 4.3 nM.
On to `COc1cnc2c(-c3nc4cc(F)c(O[C@@H](C)[C@@H](C)OC(=O)Nc5ccc6[nH]c(=O)oc6c5)nc4s3)cc(C)cc2n1` [Example 708, (2R,3S)-3-((6-fluoro-2-(2-methoxy-7-methylquinoxalin-5-yl)thiazolo[5,4-b]pyridin-5-yl)oxy)butan-2-yl (2-oxo-2,3-dihydrobenzo[d]oxazol-6-yl)carbamate], for which the IC50 worked out at 2.6 nM.
Turning to `COc1cnc2c(-c3nc4cc(F)c(O[C@@H](C)[C@@H](C)OC(=O)Nc5cccnc5)nc4s3)cc(C)cc2n1` [Example 709, (2R,3S)-3-((6-fluoro-2-(2-methoxy-7-methylquinoxalin-5-yl)thiazolo[5,4-b]pyridin-5-yl)oxy)butan-2-yl pyridin-3-ylcarbamate], the IC50 is 0.4 nM.
As to `COc1cnc2c(-c3nc4cc(F)c(O[C@@H](C)[C@@H](C)OC(=O)Nc5ccc(C)nc5)nc4s3)cc(C)cc2n1` [Example 710, (2R,3S)-3-((6-fluoro-2-(2-methoxy-7-methylquinoxalin-5-yl)thiazolo[5,4-b]pyridin-5-yl)oxy)butan-2-yl (6-methylpyridin-3-yl)carbamate], the IC50 came to 1.8 nM.
Consider `COc1cnc2c(-c3nc4cc(F)c(O[C@@H](C)[C@@H](C)OC(=O)Nc5cnc(OC)nc5)nc4s3)cc(C)cc2n1` [Example 711, (2R,3S)-3-((6-fluoro-2-(2-methoxy-7-methylquinoxalin-5-yl)thiazolo[5,4-b]pyridin-5-yl)oxy)butan-2-yl (2-methoxypyrimidin-5-yl)carbamate], for which the IC50 was 2.4 nM.
`COC(=O)c1ncc(NC(=O)O[C@H](C)[C@H](C)Oc2nc3sc(-c4cc(C)cc5nc(OC)cnc45)nc3cc2F)cn1` [Example 712, methyl 5-(((((2R,3S)-3-((6-fluoro-2-(2-methoxy-7-methylquinoxalin-5-yl)thiazolo[5,4-b]pyridin-5-yl)oxy)butan-2-yl)oxy)carbonyl)amino)pyrimidine-2-carboxylate]: the IC50 stood at 3.2 nM.
Regarding `COc1cnc2c(-c3nc4cc(F)c(O[C@@H](C)[C@@H](C)OC(=O)Nc5ccncc5)nc4s3)cc(C)cc2n1` [Example 713, (2R,3S)-3-((6-fluoro-2-(2-methoxy-7-methylquinoxalin-5-yl)thiazolo[5,4-b]pyridin-5-yl)oxy)butan-2-yl pyridin-4-ylcarbamate], the IC50 amounted to 1.8 nM.
`COc1cnc2c(-c3nc4cc(F)c(O[C@@H](C)[C@@H](C)OC(=O)Nc5cncc(F)c5)nc4s3)cc(C)cc2n1` [Example 714, (2R,3S)-3-((6-fluoro-2-(2-methoxy-7-methylquinoxalin-5-yl)thiazolo[5,4-b]pyridin-5-yl)oxy)butan-2-yl (5-fluoropyridin-3-yl)carbamate]: the IC50 was found to be 1.2 nM.
For the compound `COC(=O)c1ccc(NC(=O)O[C@H](C)[C@H](C)Oc2nc3sc(-c4cc(C)cc5nc(OC)cnc45)nc3cc2F)cn1` [Example 715, methyl 5-(((((2R,3S)-3-((6-fluoro-2-(2-methoxy-7-methylquinoxalin-5-yl)thiazolo[5,4-b]pyridin-5-yl)oxy)butan-2-yl)oxy)carbonyl)amino)picolinate], the IC50 was 0.9 nM.
In the case of `COc1cnc2c(-c3nc4cc(F)c(O[C@@H](C)[C@@H](C)OC(=O)Nc5cncnc5)nc4s3)cc(C)cc2n1` [Example 716, (2R,3S)-3-((6-fluoro-2-(2-methoxy-7-methylquinoxalin-5-yl)thiazolo[5,4-b]pyridin-5-yl)oxy)butan-2-yl pyrimidin-5-ylcarbamate], the IC50 came out at 2 nM.
